These results are taken from US10202386B2, “Pyrrolo[3,2-D]pyrimidine derivatives as inducers of human interferon” (GlaxoSmithKline Intellectual Property (No.2) Limited, priority 2014, dated 2019).

SMILES strings stand for the structures. Counter-ions that a name gives are not always drawn. A value given as a limit tells only on which side of the number the result lay.

Holding throughout (type): cell-based
For experiment [1], the system named is IFN-α. Put plainly: Induction of Interferon-α using fresh human whole blood (WB). Conditions: three donors, overnight incubation, response as % of 2 μM resiquimod control, read-out: mean pEC50 for IFN-α (converted). The protocol:
(§1) Assay for the Induction of Interferon-α and TNF-α Using Fresh Human Whole Blood (WB)
(§2) Compounds were prepared at 100× required concentration in DMSO in flat-bottom microtitre plates at a volume of 1.5 μL. Columns 1-10 contained a 1 in 4 serial dilution of the test compound. Included on each plate was a serial dilution of the TLR7/8 agonist resiquimod as a standard and Column 11 contained 1.5 μl of 200 μM resiquimod (giving a 2 μM final concentration, used to define the approximate maximal response to resiquimod). Each compound was assayed in duplicate for each donor.
(§3) Blood samples from three human donors were collected into sodium heparin (10 U/ml). 150 μl of whole Blood was dispensed into Col 1 to 11 of assay plates containing 1.5 μl of test compound or standard in DMSO. Plates were placed in an incubator overnight (37° C., 95% air, 5% CO2). Following the overnight incubation, plates were removed from the incubator & mixed on an orbital shaker for approximately 1 minute. 100 μl of 0.9% saline was added to each well and the plates mixed again on an orbital shaker. Plates were then centrifuged (2500 rpm, 10 mins), after which a sample of plasma was removed using a Biomek FX and assayed for both IFN-α and TNF-α using the MSD (Mesoscale Discovery) electrochemiluminescence assay platform. The IFN-α assay was carried out similarly to that described above. The TNF-α assay was carried out as per kit instructions (Cat No K111BHB).
(§4) Cytokine released was expressed as a percentage of the 2 μM resiquimod control (column 11). This percentage was plotted against compound concentration and the pEC50 for the response determined by non-linear least squares curve fitting. For the IFN-α responses, generally a 4 parameter logistic model was selected. For the TNF-α responses where a clear maximum response was obtained (i.e. a well defined plateau in the response was observed) then a 4 parameter model was generally used. If the upper asymptote of the curve wasn't well defined then the curve fitting was generally constrained to a maximal response of 100% (i.e. to the response to 2 μM resiquimod) or to the response of the highest concentration tested if this was greater than the resiquimod response. Some curves were bell shaped for one or both cytokines and the cytokine data on the down slope of the bell shaped response (i.e. concentrations above those giving the maximal response) were generally excluded from the fit, usually with the exception of the concentration immediately above the peak response. Curve fitting thus concentrated on the up slope of the dose response curve.

Experiment [2] has as its system TNF-α. Nature of the experiment: Induction of TNF-α using fresh human peripheral blood mononuclear cells (PBMCs). Conditions: PBMC, three donors, 24 hr incubation, response as % of 2 μM resiquimod control, read-out: mean pEC50 for TNF-α (converted). How it is done:
(§5) Assay for the Induction of Interferon-α and TNF-α Using Fresh Human Peripheral Blood Mononuclear Cells (PBMCs)
(§6) Compounds were dispensed by at 100× the required concentration in DMSO (1 uL/well in a flat bottom 96-well cell culture plate). Each compound was assayed in duplicate for each donor. Each plate contained a dilution series of the TLR7/8 agonist resiquimod as standard and Column 11 contained 1 μL of 200 μM resiquimod (giving a 2 μM final concentration, used to define the approximate maximal response to resiquimod).
(§7) Blood samples from three human donors were collected into sodium heparin (10 U/ml). 25 mL volumes of whole blood were overlaid onto 15 mL Histopaque in Leucosep tubes which were centrifuged at 400 g for 30 min and the band at the plasma/histopaque interface carefully removed into a sterile 50 mL conical tube. The volume in the tube was made up to 50 mL with sterile DPBS (Dulbecco's phosphate buffered saline, —CaCl2/MgCl2) and centrifuged at 300 g for 10 min. The cell pellet was resuspended in 20 mL of media (RPMI 1640 (Low endotoxin) supplemented with 10% v/v foetal calf serum (FCS, low endotoxin) 100 U/mL penicillin G, 100 μg/mL streptomycin, 10 mM L-glutamine and 1× non-essential amino acids), and the cells counted using the Nucleoview 3000 (Chemometec, Via-1 Cassette). The PBMCs concentration was adjusted to give a final concentration of 2×10^6/mL and 100 uL of this cells suspension was added to wells containing 1 μL of diluted test compound.
(§8) The cell preparations were incubated for 24 hr (37° C., 95% air, 5% CO2) after which a sample of the supernatant was removed using the Biomek FX and assayed for both IFN-α and TNF-α using the MSD (Mesoscale Discovery) electrochemiluminescence assay platform. The IFN-α assay was carried out similarly to that described above. The TNF-α assay was carried out as per kit instructions (Cat No K111BHB).
as §4, with “responses” for “responses,”

Experiment [3] concerns IFN-α. Put plainly: Induction of Interferon-α using fresh human peripheral blood mononuclear cells (PBMCs). The conditions noted are these: PBMC, three donors, 24 hr incubation, response as % of 2 μM resiquimod control, read-out: mean pEC50 for IFN-α (converted). How it is done: as §5, §6, §7, §8
as §4, with “responses” for “responses,”

In experiment [4] the test system is TNF-α. Nature of the experiment: Induction of TNF-α using fresh human whole blood (WB). Conditions: three donors, overnight incubation, response as % of 2 μM resiquimod control, read-out: mean pEC50 for TNF-α (converted). How it is done:
as §1, §2, §3, §4

As for `Cc1nc(N)c2[nH]c(C)c(CCCCCCN3CCCCC3)c2n1` [Example 1, 2,6-Dimethyl-7-(6-(piperidin-1-yl)hexyl)-5H-pyrrolo[3,2-d]pyrimidin-4-amine], the EC50 is at least 2 µM in experiment [1], at least 50.1 µM in experiment [2], 0.501 to 3.98 µM in experiment [3] and at least 50.1 µM in experiment [4].

With `Cc1nc(N)c2[nH]c(C)c(CCCCCN3CCCC3)c2n1` [Example 2, 2,6-Dimethyl-7-(5-(pyrrolidin-1-yl)pentyl)-5H-pyrrolo[3,2-d]pyrimidin-4-amine maleate], the EC50 was at least 2 µM in experiment [1], at least 50.1 µM in experiment [2], 0.501 to 3.98 µM in experiment [3] and at least 50.1 µM in experiment [4].

As to `Cc1nc(N)c2[nH]c(C)c(CCCCCN(CCO)CCO)c2n1` [Example 3, 2,2′-((5-(4-Amino-2,6-dimethyl-5H-pyrrolo[3,2-d]pyrimidin-7-yl)pentyl)azanediyl)diethanol formate], the EC50 in experiment [1] was at least 2 µM; in experiment [2] it was at least 50.1 µM; in experiment [3], 0.501 to 3.98 µM; in experiment [4], at least 50.1 µM.

In the case of `Cc1nc(N)c2[nH]c(C)c(CCCCCCN(CCO)CCO)c2n1` [Example 4, 2,2′-((6-(4-Amino-2,6-dimethyl-5H-pyrrolo[3,2-d]pyrimidin-7-yl)hexyl)azanediyl)diethanol formate], the EC50 in experiment [1] is at least 2 µM; in experiment [2], at least 50.1 µM; in experiment [3], 0.501 to 3.98 µM; in experiment [4], at least 50.1 µM.

Turning to `COCCN(CCO)CCCCCCc1c(C)[nH]c2c(N)nc(C)nc12` [Example 5, 2-((6-(4-Amino-2,6-dimethyl-5H-pyrrolo[3,2-d]pyrimidin-7-yl)hexyl)(2-methoxyethyl)amino)ethanol], the EC50 in experiment [1] was at least 2 µM; in experiment [2], at least 50.1 µM; in experiment [3] it was 0.501 to 3.98 µM; in experiment [4], at least 50.1 µM.

`COCCN(CCCCCCc1c(C)[nH]c2c(N)nc(C)nc12)CCOC` [Example 6, 7-(6-(bis(2-Methoxyethyl)amino)hexyl)-2,6-dimethyl-5H-pyrrolo[3,2-d]pyrimidin-4-amine]: the EC50 is at least 2 µM in experiment [1], at least 50.1 µM in experiment [2], 0.501 to 3.98 µM in experiment [3] and at least 50.1 µM in experiment [4].

For `Cc1nc(N)c2[nH]c(C)c(CCCCCCNCCO)c2n1` [Example 7, 2-((6-(4-Amino-2,6-dimethyl-5H-pyrrolo[3,2-d]pyrimidin-7-yl)hexyl)amino)ethanol], the EC50 in experiment [1] is at least 2 µM; in experiment [2], at least 50.1 µM; in experiment [3], 0.501 to 3.98 µM; in experiment [4], at least 50.1 µM.

In the case of `Cc1nc(N)c2[nH]c(C)c(CCCCCCN3C[C@H](O)C[C@H](O)C3)c2n1` [Example 8, (3R,5S)-1-(6-(4-amino-2,6-dimethyl-5H-pyrrolo[3,2-d]pyrimidin-7-yl)hexyl)piperidine-3,5-diol], the EC50 in experiment [1] was at least 2 µM; in experiment [2], at least 50.1 µM; in experiment [3], 0.501 to 3.98 µM; in experiment [4] it was at least 50.1 µM.

In the case of `Cc1nc(N)c2[nH]c(C)c(CCCCCCN3C[C@H](O)C[C@@H](O)C3)c2n1` [Example 9, (3R,5R)-1-(6-(4-Amino-2,6-dimethyl-5H-pyrrolo[3,2-d]pyrimidin-7-yl)hexyl)piperidine-3,5-diol], the EC50 was at least 2 µM in experiment [1], at least 50.1 µM in experiment [2], 0.501 to 3.98 µM in experiment [3] and at least 50.1 µM in experiment [4].

With `Cc1nc(N)c2[nH]c(C)c(CCCCCCN(C)C)c2n1` [Example 10, 7-(6-(Dimethylamino)hexyl)-2,6-dimethyl-5H-pyrrolo[3,2-]pyrimidin-4-amine], the EC50 is at least 2 µM in experiment [1] and at least 50.1 µM in experiment [4].
